The term Ki denotes a dissociation constant, usually derived from enzyme kinetics or from competition with a known ligand.

Each structure is given as a SMILES string. A value given as a limit tells only on which side of the number the result lay.

The source of these data is ChEMBL document CHEMBL1136525, “6,7-dihydroxyisoquinoline-3-carboxylic acids are potent inhibitors on the binding of insulin-like growth factor (IGF) to IGF-binding proteins: optimization of the 1-position benzoyl side chain” (Bioorg Med Chem Lett, 2003).

In the assay the target is Insulin-like growth factor-binding protein 3 (Homo sapiens, UniProt P17936). Put plainly: Ability to displace Insulin-Like Growth Factor (IGF-I) from its binding to human insulin-like growth factor binding protein 3 (hIGFBP-3).
Chain of Insulin-like growth factor-binding protein 3 (P17936 whole entry): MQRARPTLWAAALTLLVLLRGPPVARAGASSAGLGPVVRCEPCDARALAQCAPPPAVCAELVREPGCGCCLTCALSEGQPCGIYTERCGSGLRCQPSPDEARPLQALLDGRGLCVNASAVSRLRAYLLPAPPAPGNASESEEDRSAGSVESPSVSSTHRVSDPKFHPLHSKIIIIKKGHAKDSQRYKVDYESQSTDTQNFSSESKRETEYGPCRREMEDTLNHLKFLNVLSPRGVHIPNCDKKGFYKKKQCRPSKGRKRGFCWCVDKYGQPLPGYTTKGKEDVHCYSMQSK
For the compound `O=C(O)c1cc2cc(O)c(O)cc2c(C(O)c2ccc(Oc3ccccc3)cc2)n1` (configuration not stated), the affinity, expressed as Ki, was 32 nM. This counts as double-digit nanomolar.

`O=C(O)c1cc2cc(O)c(O)cc2c(C(=O)c2ccc(Oc3cc(Cl)cc(Cl)c3)c(F)c2)n1` showed a Ki of 9 nM.

For the compound `Nc1ccc(C(=O)c2nc(C(=O)O)cc3cc(O)c(O)cc23)cc1`, the Ki was found to be 130 nM. Compared with the last compound, the Ki is about 14-fold higher.

On to `O=C(O)c1cc2cc(O)c(O)cc2c(C(=O)c2ccc(Oc3ccc(Cl)c(Cl)c3)c(F)c2)n1`, for which the Ki was 12 nM. Against the preceding compound, the Ki is about 11-fold lower.

For the compound `O=C(O)c1cc2cc(O)c(O)cc2c(C(=O)c2ccc(F)c(F)c2)n1`, the affinity, expressed as Ki, was 51 nM.

For the compound `O=C(O)c1cc2cc(O)c(O)cc2c(Cc2ccc3c(c2)OCO3)n1`, the affinity corresponds to a Ki of 72 nM.

On to `CS(=O)(=O)Nc1cc2cc(C(=O)O)nc(C(=O)c3ccc4c(c3)OCO4)c2cc1O`, for which the inhibitory constant (Ki) is over 10000 nM.

As to `Cc1cc(C)c(C(O)c2nc(C(=O)O)cc3cc(O)c(O)cc23)c(C)c1` (configuration not stated), the Ki turned out to be 11 nM.

The compound `O=C(O)c1cc2cc(O)c(O)cc2c(C(=O)c2ccc(Oc3cccc(Cl)c3)c(F)c2)n1` yielded a Ki of 11 nM.

The compound `O=C(O)c1cc2cc(O)c(O)cc2c(C(=O)c2ccc(Sc3ccc(Cl)cc3)c(F)c2)n1` displayed a Ki of 31 nM.

`O=C(O)c1cc2cc(O)c(O)cc2c(C(=O)c2ccc(Cl)c(Cl)c2)n1`: the affinity corresponds to a Ki of 29 nM.

`Cc1cc(C)c(C(=O)c2nc(C(=O)O)cc3cc(O)c(O)cc23)c(C)c1` returned a Ki of 100 nM.

`O=C(O)c1cc2cc(O)c(O)cc2c(C(O)c2cccc(F)c2)n1` (configuration not stated) registered a Ki of 24 nM.

Turning to `O=C(O)c1cc2cc(O)c(O)cc2c(C(O)c2ccccc2Cl)n1` (configuration not stated), the Ki amounted to 25 nM.

In turn, `Cc1ccc(Oc2ccc(C(=O)c3nc(C(=O)O)cc4cc(O)c(O)cc34)cc2F)cc1` returned a Ki of 9.4 nM.

As for `O=C(O)c1cc2cc(O)c(O)cc2c(C(=O)c2ccc(Oc3ccc(-c4ccccc4)cc3)c(F)c2)n1`, affinity was put at a Ki of 32 nM.

Compound `O=C(O)c1cc2cc(O)c(O)cc2c(C(=O)c2ccc(C(F)(F)F)cc2)n1` yielded a Ki of 38 nM. This Ki and that of the compound before are within 1.5-fold of each other.

`O=C(O)c1cc2cc(O)c(O)cc2c(C(=O)c2ccc(Oc3ccc(C(F)(F)F)cc3)c(F)c2)n1`: the affinity, expressed as Ki, was 32 nM.

The compound `O=C(O)c1cc2cc(O)c(O)cc2c(C(=O)c2cccc(F)c2)n1` yielded a Ki of 110 nM.

`O=C(O)c1cc2cc(O)c(O)cc2c(C(=O)c2ccc([N+](=O)[O-])cc2)n1` displayed a Ki of 32 nM.

As to `Nc1cc2cc(C(=O)O)nc(C(=O)c3ccc(O)c(O)c3)c2cc1O`, the Ki worked out at 60 nM.

Compound `O=C(O)c1cc2cc(O)c(O)cc2c(C(=O)c2ccc(Oc3ccc(Cl)cc3)c(F)c2)n1` showed a Ki of 20 nM.

`CCCCC(CC)CNc1ccc(C(=O)c2nc(C(=O)O)cc3cc(O)c(O)cc23)cc1F` (configuration not stated) gave a Ki of 62 nM.

Compound `Nc1cc2cc(C(=O)O)nc(C(=O)c3ccc4c(c3)OCO4)c2cc1O` yielded a Ki of 850 nM.

Take `CS(=O)(=O)Nc1ccc(C(=O)c2nc(C(=O)O)cc3cc(O)c(O)cc23)cc1`: the affinity corresponds to a Ki of 110 nM.

With `O=C(O)c1cc2cc(O)c(O)cc2c(C(=O)c2ccccc2Cl)n1`, the affinity, expressed as Ki, was 110 nM.

Turning to `O=C(O)c1cc2cc(O)c(O)cc2c(C(O)c2ccc(C(F)(F)F)cc2)n1` (configuration not stated), the affinity corresponds to a Ki of 18 nM.
